{"source": "paper PMC3359160", "about": "“Dipeptidyl peptidase IV, aminopeptidase N and DPIV/APN-like proteases in cerebral ischemia” (Journal of Neuroinflammation, 2012)", "key": {"[1]": {"test_system": "eMCAO-induced infarct volume", "test": "Effect of protease inhibitors on infarct volumes after eMCAO (transient focal cerebral ischemia)", "assay_type": "in vivo, male Sprague-Dawley rats", "settings": "rat, icv f.c. 10 μM; for effect on striatal lesion sizes / effect on eMCAO-induced infarct volumes in ipsilateral cortices: 7 days post eMCAO; for reduction of eMCAO-induced infarct volume in ipsilateral cortex compared to vehicle: mean ± S.E.M.", "method": "Studies were performed on male Sprague-Dawley rats (250-280 g) obtained from Harlan Winkelmann (Borchen, Germany). Animals were maintained under constant environmental conditions with an ambient temperature of 21 ± 2°C and relative humidity of 40%. They were housed with a 12-h light-dark cycle, food and water were given ad libitum. […] Animals were anesthetized with halothane in a mixture of nitrous oxide/oxygen (70:30) and maintained with 2-3% halothane during the following procedures: rats were placed in a Kopf stereotaxic frame and further anesthetized via a nose cone. For the induction of eMCAO, a burr hole (1 mm diameter) was drilled into the skull (coordinates: anterior 0.50 mm from bregma, lateral 5.2 mm to […]). After careful opening of the dura, a 29-gauge cannula was lowered 7.5 mm below the dura according to the rat brain atlas of Paxinos and Watson. […] After further 5 min, the cannula was slowly withdrawn. Throughout the operation procedure, rats were kept at 37 ± 0.5°C using a thermostatically controlled heating blanket attached to a rectal thermometer. The animals were then placed under a heating lamp to maintain normothermia until recovery. In order to perform the icv application of different protease inhibitors under halothane anesthesia, a second burr hole was drilled into the skull (coordinates: posterior 0.80 mm from bregma, lateral 1.5 mm to […]). Then, a 29-gauge cannula was lowered 4.5 mm below the dura. The icv injection of IPC1755 (2 μl of a 10 mmol/l PBS/DMSO solution, pH 7.4, f.c. 10 μM) was performed according to one of the following time schedules; […] According to legal requirements of the German animal law, animals were kept under anesthesia during each drug injection. Control rats were treated in the same way, except that the corresponding vehicle solution instead of the drug was injected. Thus, potential protective effects of halothane can be excluded. Rats were maintained at 37 ± 0.5°C throughout the operation procedures. In parallel, the body temperature was monitored using a rectal temperature sensor. Subsequently, the animals were placed into an incubator to maintain normothermia until recovery from anesthesia and then returned into their home cage. After a survival time of 7 days after eMCAO, animals were anesthetized by intraperitonial injection of pentobarbital and transcardially perfusion-fixed with saline followed by 4% paraformaldehyde in 0.1 M PBS (pH 7.4). Brains were then removed carefully, post-fixed in the same fixative for 2 h, and placed in a rodent brain matrix (rat, ASI Instruments, Warren, MI, USA). 1-mm coronal brain slices were cut with a razor blade at 14 predetermined anterior-posterior levels. After cryoprotection in 30% sucrose, slices were rapidly frozen in isopentane and stored at -80°C. Four to five cryostat sections (30 μm) from each brain slice were cut in a cryo microtome and stained with toluidine blue. The extent of cortical and striatal damage following ischemic injury was documented with microphotographic images from Nissl-stained slices showing the anterior-posterior level according to the brain atlas of Paxinos and Watson. The volumes of cortical and striatal infarct lesions were measured at eight predetermined anterior-posterior levels by an operator blinded to the group composition. Three-dimensional lesion sizes were calculated by integration of two-dimensional lesion sizes at each stereotactic level and the distances between the various levels. Image analysis was performed with an Eclipse TE 3000 microscope (Nikon, Düsseldorf, Germany), equipped with a 4x objective, and the Lucia software package (Version 4.2.1., Nikon). Data were statistically analyzed by non-paired Student's t-test and given as mean ± S.E.M."}, "DPIV": {"test_system": "DPIV", "set-up": "method as in Patent EP09169269", "settings": "ref Patent EP09169269; cited from earlier work"}, "APN": {"test_system": "APN", "set-up": "method as in Patent EP09169269", "settings": "ref Patent EP09169269; cited from earlier work"}, "cAAP": {"test_system": "cAAP", "set-up": "method as in Patent EP09169269", "settings": "ref Patent EP09169269; cited from earlier work"}, "DPII": {"test_system": "DPII", "set-up": "method as in Patent EP09169269", "settings": "ref Patent EP09169269; cited from earlier work"}, "DP8/9": {"test_system": "DP8/9", "set-up": "method as in Patent EP09169269", "settings": "ref Patent EP09169269; cited from earlier work"}, "mononuclear cells": {"test_system": "mononuclear cells", "set-up": "method as in Patent EP09169269", "settings": "ref Patent EP09169269; read-out: IC50, proliferation of mononuclear cells; cited from earlier work"}, "T cells": {"test_system": "T cells", "set-up": "method as in Patent EP09169269", "settings": "ref Patent EP09169269; read-out: IC50, proliferation of T cells; cited from earlier work"}, "[2]": {"settings": "in parallel to eMCAO and 6 h and 24 h post insult, analyzed 7 days post eMCAO"}, "[3]": {"settings": "in parallel to eMCAO and 6 h and 24 h post insult"}}, "data": [{"smiles": "CCCCCCCCCCCCCCCC(=O)OC(C(=O)NCC(C)(C)CNC(=O)CC(N)Cc1cc(F)ccc1F)C(N)Cc1ccccc1", "note": "(stereo not shown) [IPC1755]", "values": [{"measurement": "effect on striatal lesion sizes", "setting": "[1]; all three time schedules (Figure 7C columns b-d)", "value": "did not affect striatal lesion sizes"}, {"measurement": "cortical lesion size, % of control damage of vehicle-treated animals", "setting": "[1]; exclusively 6 and 24 h post eMCAO, analyzed 7 days post eMCAO", "value": "107.5 ± 12.8", "unit": "%"}, {"measurement": "reduction of eMCAO-induced infarct volume in ipsilateral cortex compared to vehicle", "setting": "[1]; [2]", "value": "48.8 ± 7.9", "unit": "%"}, {"measurement": "IC50", "setting": "DPIV", "value": 0.06, "unit": "µM"}, {"measurement": "IC50", "setting": "APN", "value": 0.03, "unit": "µM"}, {"measurement": "IC50", "setting": "cAAP", "value": 0.02, "unit": "µM"}, {"measurement": "IC50", "setting": "DPII", "value": 166, "unit": "µM"}, {"measurement": "IC50", "setting": "DP8/9", "value": 85, "unit": "µM"}, {"measurement": "IC50", "setting": "mononuclear cells", "value": 36, "unit": "µM"}, {"measurement": "IC50", "setting": "T cells", "value": 34, "unit": "µM"}]}, {"smiles": "CC[C@@H](C)[C@H](N)C(=O)N1Cc2ccccc2C1.Cl", "note": "[selective DP8/9 inhibitor, (2S,3R)-2-(2-amino-3-methyl-1-oxopentan-1-yl)-1,3-dihydro-2H-isoindole hydrochloride]", "values": [{"measurement": "effect on eMCAO-induced infarct volumes in ipsilateral cortices", "setting": "[1]; [3]", "value": "did not decrease"}, {"measurement": "effect on striatal lesion sizes", "setting": "[1]; [3]", "value": "neither sitagliptin nor selective DPII or DP8/9 inhibition affected"}]}, {"smiles": "NCC[C@H](N)C(=O)N1CCCCC1", "note": "[selective DPII inhibitor, L-2,4-Diaminobutyrylpiperidinamide]", "values": [{"measurement": "effect on eMCAO-induced infarct volumes in ipsilateral cortices", "setting": "[1]; [3]", "value": "did not decrease"}, {"measurement": "effect on striatal lesion sizes", "setting": "[1]; [3]", "value": "neither sitagliptin nor selective DPII or DP8/9 inhibition affected"}]}, {"smiles": "N[C@@H](CC(=O)N1CCn2c(nnc2C(F)(F)F)C1)Cc1cc(F)c(F)cc1F", "note": "[sitagliptin, (R)-3-Amino-1-[3-(trifluormethyl)-5,6,7,8-tetrahydro[1,2, 4]triazol[4,3-a]pyrazin-7-yl]-4-(2,4,5-trifluorphenyl)butan-1-on]", "values": [{"measurement": "effect on striatal lesion sizes", "setting": "[1]; [3]", "value": "neither sitagliptin nor selective DPII or DP8/9 inhibition affected"}, {"measurement": "reduction of eMCAO-induced infarct volume in ipsilateral cortex compared to vehicle", "setting": "[1]; [2]", "value": "21.1 ± 5.8", "unit": "%"}]}]}
